The text below walks through data of patent US7935687B2, “Methods for treating spinal muscular atrophy using tetracycline compounds” (Paratek Pharmaceuticals, Inc., priority 2007, dated 2011).

The test system of data set [1] is 3813 SMA patient-derived fibroblast cells. The data set can be described thus: In vitro gems assay. The data set is classed as cell-based, Human. Conditions: 1 mM, SMA patient line. As for the experimental part:
The following example illustrates how tetracycline compound of the invention increase gems in vitro. A glass cover slide was added into each well of 6 well plates and 1×10^4 cells (3813 SMA patient-derived fibroblast cells or 3814 unaffected family member-derived fibroblast cells) in 2 mL were added. After approximately 6 hours, the medium was changed and the desired compound was added to the appropriate well at indicated concentrations. After 12 hours, the medium was changed and the desired compound was added to the appropriate well again. After 24 hours, one set of slides was fixed and the medium was changed and the desired compound was added to the appropriate well again. After 36 hours, the medium was changed and the desired compound was added to the appropriate well again. Another set of cells were fixed on the slides at 48 hours.
Immunofluorescence staining of the cells was performed by washing the cells 2 times with PBS (phosphate buffered saline) and fixing the cells on slides in 4% paraformaldehyde for 10 minutes on ice. The cells were washed 3 times for 5 minutes with PBS, then were permeabilized on the cover slip with 0.2% TritonX, 0.5% BSA in PBS and incubated for 5 minutes on ice. […] The cells were again washed 2 times for five minutes with PBS, mounted on slides with Molecular Probes Prolong Antifade kit, dried and analyzed with Axioskop widefield fluourescence microscope.

The nature of data set [2]: Brain-penetrating ability, brain:plasma ratio. The data set is classed as in vivo, Male CD1 mice. Conditions: iv; for Ratio of Brain to Plasma Levels (at T = 3 hours, %): mouse, in vivo, 5 mg/kg. As for the experimental part:
Male CD1 mice were administered various tetracycline compounds (i.v. at a dose of 5 mg/kg). After 15 minutes, 1 hour and 3 hours post-dose, 3 mice were sacrificed, exsanguinated, and brains harvested and snap frozen. Blood was centrifuged and the plasma removed and frozen.

In another data set the test system is E. coli (EC D1-209). Briefly: Antibacterial MIC, gram negative. As to conditions: CLSI methodology, 35° C., 18-24 hours. The data set is classed as cell-based.
For a further data set, the system named is SMN2 mRNA. Briefly: In vitro cell-free splicing assay for inclusion of exon 7. Conditions: HeLa cell nuclear extract, 30° C., 3 hours. The data set is classed as biochemical. In short, it runs like this:
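^32P-labelled SMN2 minigene pre-mRNA (exon 6 to part of exon 8; 10 fmol) spliced 3 h at 30 °C in 30% HeLa nuclear extract with 0.5 mM ATP, 1.56 mM MgCl2, pH 7.4, plus compound or buffer. Exon 7 inclusion quantified by denaturing PAGE and phosphorimaging. Emax is maximal % inclusion and Cmax the lowest concentration (μM) reaching it, reported as binned grades.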

In a further data set the test system is S. aureus (SA RN450). Briefly: Antibacterial MIC, gram positive. The class given is cell-based. As to conditions: CLSI methodology, 35° C., 18-24 hours.

The structures appear in SMILES notation.

For `CCCC(CCC)C(=O)O` [valproic acid], in data set [1], the “increase in the number of gems/100 cells” value amounted to 1.7 fold.
In the case of `CN(C)c1ccc(O)c2c1C[C@H]1C[C@H]3[C@H](N(C)C)C(O)=C(C(N)=O)C(=O)[C@@]3(O)C(O)=C1C2=O` [Minocycline, minocycline, reference compound], the Kp at 3 h in data set [2] (male, CD1, mouse, brain and plasma, i.v. 5 mg/kg, 3 hours post-dose, read-out: Ratio of Brain to Plasma Levels (at T = 3 hours, %)) was found to be 1.28.
As for `CN(C)C1C(O)=C(C(N)=O)C(=O)C2(O)C(O)=C3C(=O)c4c(O)ccc(-c5cccc(CCCN6CCCCC6)c5)c4CC3CC12` (stereo not shown) [BN], in the data set with E. coli (EC D1-209), the “MIC Gram Negative (EC D1-209)” value was “** (modest antibacterial activity (between about 4 and 8 μg/mL))”. In addition, in the data set with SMN2 mRNA, the “Cmax (lowest compound concentration at which the maximum exon 7 inclusion occurs)” value was “*** (concentrations of less than 10 μM)” and the “Emax (maximum percentage exon 7 inclusion observed)” value is listed as “*** (values greater than 20%)”. The “MIC Gram Positive (SA RN450)” value against S. aureus (SA RN450) is on record as “*** (Good antibacterial activity (e.g., less than about 4 μg/mL))”. Besides, the “Ratio of Brain to Plasma Levels (at T = 3 hours, %)” value in data set [2] stood at 41.6%.
Regarding `COCCN(C)CC(=O)c1ccc(O)c2c1CC1CC3C(N(C)C)C(O)=C(C(N)=O)C(=O)C3(O)C(O)=C1C2=O` (stereo not shown) [BO], in the data set on E. coli (EC D1-209), the “MIC Gram Negative (EC D1-209)” value is listed as “* (weak antibacterial activity (greater than about 8 μg/mL))”. Further, in the data set on S. aureus (SA RN450), the “MIC Gram Positive (SA RN450)” value is listed as “*** (Good antibacterial activity (e.g., less than about 4 μg/mL))”. In addition, the “Ratio of Brain to Plasma Levels (at T = 3 hours, %)” value in data set [2] is 50.7%.
